Active and inactive are the calls of the source.
Columns and labels:
[1] = HIV-1 Vif–A3G interaction blockers – biochemical, TR-FRET, GST-Vif 1-94, biotin-A3G peptide, dose response retest, primary screen (AID 1117319); format: functional;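 further: TR-FRET signal of purified GST-Vif binding a biotinylated A3G peptide; inhibitors lower the FRET signal by blocking Vif and A3G binding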
[2] = molecular target: T1, Methionyl-tRNA synthetase, putative (Trypanosoma brucei brucei, UniProt Q38C91); format: functional, Trypanosoma brucei brucei strain 927/4 GUTat10.1
T1 sequence (Q38C91 whole entry): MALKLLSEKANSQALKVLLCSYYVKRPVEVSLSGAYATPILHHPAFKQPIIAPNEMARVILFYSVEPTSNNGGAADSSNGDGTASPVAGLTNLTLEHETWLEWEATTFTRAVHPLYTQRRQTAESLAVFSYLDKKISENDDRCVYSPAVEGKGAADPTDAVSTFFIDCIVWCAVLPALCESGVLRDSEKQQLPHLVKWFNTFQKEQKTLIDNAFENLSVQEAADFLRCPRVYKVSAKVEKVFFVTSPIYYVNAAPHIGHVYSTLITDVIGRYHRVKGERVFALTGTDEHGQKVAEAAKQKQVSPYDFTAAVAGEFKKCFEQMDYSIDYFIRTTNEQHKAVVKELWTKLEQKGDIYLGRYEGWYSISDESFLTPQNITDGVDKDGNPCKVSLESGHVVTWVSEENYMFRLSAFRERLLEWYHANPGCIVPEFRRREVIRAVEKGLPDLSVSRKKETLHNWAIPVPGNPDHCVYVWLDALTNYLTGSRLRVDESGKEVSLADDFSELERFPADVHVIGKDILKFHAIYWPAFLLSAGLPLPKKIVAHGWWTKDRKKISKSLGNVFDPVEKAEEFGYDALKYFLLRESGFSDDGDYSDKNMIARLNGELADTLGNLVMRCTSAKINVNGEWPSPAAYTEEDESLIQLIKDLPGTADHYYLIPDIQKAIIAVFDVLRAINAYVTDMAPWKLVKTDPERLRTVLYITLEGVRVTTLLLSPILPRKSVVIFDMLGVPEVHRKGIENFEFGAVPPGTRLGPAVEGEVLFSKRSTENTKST

Streptokinase A = molecular target: T2, Streptokinase A (Streptococcus pyogenes serotype M1, UniProt P10520); experiment: viability-normalized secreted streptokinase activity reduction – plasminogen activation absorbance, OD405, dose response (AID 1914); format: functional, Streptococcus pyogenes M1 GAS;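 further: secreted streptokinase activity via plasminogen activation per viability signal from cell pellet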
T2 sequence (P10520 whole entry): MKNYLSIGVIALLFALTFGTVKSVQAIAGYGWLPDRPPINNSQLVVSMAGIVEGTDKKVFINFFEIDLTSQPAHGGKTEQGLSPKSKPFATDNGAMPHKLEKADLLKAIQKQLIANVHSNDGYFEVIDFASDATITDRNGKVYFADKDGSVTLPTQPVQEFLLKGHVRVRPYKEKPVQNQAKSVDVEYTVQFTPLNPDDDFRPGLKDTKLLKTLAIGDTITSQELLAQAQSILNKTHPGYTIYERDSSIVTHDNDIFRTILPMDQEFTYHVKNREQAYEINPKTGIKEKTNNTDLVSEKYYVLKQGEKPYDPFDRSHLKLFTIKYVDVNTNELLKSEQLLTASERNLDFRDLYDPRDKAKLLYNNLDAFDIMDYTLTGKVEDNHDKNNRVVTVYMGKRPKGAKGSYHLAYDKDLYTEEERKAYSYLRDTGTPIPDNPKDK

[3] = Late stage counterscreen for inhibitors of Trypanosoma brucei methionyl tRNA synthetase (MetRS): Luminescence-based cell-based high throughput dose response assay to identify compounds that are cytotoxic to Jurkat human T lymphocyte cells.; format: functional
[4] = Counterscreen for inhibitors of Trypanosoma brucei methionyl tRNA synthetase (MetRS): Luminescence-based cell-based high throughput dose response assay to identify compounds that are cytotoxic to Jurkat human T lymphocyte cells.; format: functional
[5] = system: Streptococcus sp. 'group A'; experiment: Streptococcus pyogenes SK(-)GAS viability under kanamycin – luminescence, BacTiterGlo, confirmation, counter-screen for streptokinase expression inhibitor project, dose response (AID 1900); format: functional, organism-based
[6] = molecular target: T1, Methionyl-tRNA synthetase, putative; format: functional, Trypanosoma brucei brucei strain 927/4 GUTat10.1; remark: listed apart in the source
Streptococcus = experiment: GAS UMAA2166 growth inhibition – luminescence, BacTiterGlo, counter-screen for streptokinase expression inhibitor project, dose response (AID 1915); format: functional, organism-based;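 further: potency for reduction of bacterial viability or growth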
[7] = viability loss in Vero cells – cytotoxicity control for Vif-APOBEC3G degradation inhibitor project, dose response (AID 1117358); format: functional; details: Vero
[8] = molecular target: T3, Calpain-2 catalytic subunit (Sus scrofa, UniProt P43367); experiment: m-calpain protease blockers, concentration series – biochemical, fluorogenic peptide substrate, dose response (AID 1420); format: functional
T3 sequence (P43367 whole entry): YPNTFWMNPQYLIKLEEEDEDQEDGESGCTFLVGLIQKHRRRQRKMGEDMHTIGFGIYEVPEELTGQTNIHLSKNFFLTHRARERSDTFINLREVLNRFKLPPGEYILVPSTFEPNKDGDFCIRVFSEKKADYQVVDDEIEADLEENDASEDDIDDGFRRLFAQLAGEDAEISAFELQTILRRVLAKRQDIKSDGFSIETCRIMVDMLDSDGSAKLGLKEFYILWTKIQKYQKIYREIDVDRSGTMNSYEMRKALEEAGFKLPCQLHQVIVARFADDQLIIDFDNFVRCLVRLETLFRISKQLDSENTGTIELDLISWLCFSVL

Ephrin type-A receptor 4 = Ephrin type-A receptor 4 (Mus musculus, UniProt Q03137); experiment: EphA4 ligand-binding antagonists – biochemical, colorimetric, mouse EphA4, primary screen (AID 689); format: functional
[9] = molecular target: NAD-dependent protein deacylase sirtuin-5, mitochondrial (Homo sapiens, UniProt Q9NXA8); experiment: blockers of sirtuin-5 peptide desuccinylation – biochemical, fluorescence imaging, cherry-pick, set 6, dose response (AID 720597)
[10] = molecular target: Sphingosine 1-phosphate receptor 2 (Homo sapiens, UniProt O95136); experiment: Dose Response Cell Based Assay for Agonists of the S1P2 Receptor. [Related pubchem assays: 729, 736, 843 ]; format: functional
[11] = molecular target: T4, Oxysterols receptor LXR-beta (Homo sapiens, UniProt P55055); experiment: LXR agonists, Gal4 luciferase reporter, dose response, counter-screen for ssDAF-12 agonist project, cell-based, luminescence, HEK293, S. stercoralis campaign (AID 720737); format: functional; details: read-out: IC50 (the source's name)
T4 sequence (P55055 whole entry): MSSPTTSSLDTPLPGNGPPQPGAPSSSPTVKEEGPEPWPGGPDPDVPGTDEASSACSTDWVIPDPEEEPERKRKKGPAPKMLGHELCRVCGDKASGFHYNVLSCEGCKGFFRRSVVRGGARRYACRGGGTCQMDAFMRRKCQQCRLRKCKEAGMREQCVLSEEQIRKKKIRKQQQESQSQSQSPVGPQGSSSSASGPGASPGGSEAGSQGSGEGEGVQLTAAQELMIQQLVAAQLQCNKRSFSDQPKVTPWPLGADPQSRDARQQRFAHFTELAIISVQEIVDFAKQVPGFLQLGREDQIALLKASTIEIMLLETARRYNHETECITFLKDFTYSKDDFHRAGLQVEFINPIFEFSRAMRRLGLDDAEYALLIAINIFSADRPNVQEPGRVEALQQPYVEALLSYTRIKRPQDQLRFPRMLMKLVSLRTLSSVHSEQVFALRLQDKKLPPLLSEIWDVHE

[12] = Luminescence-based cell-based high throughput dose response assay to identify activators of the DAF-12 from the parasite S. stercoralis (ssDAF-12).; format: functional
[13] = viability loss in THP-1 monocytes – THP-1 cells, cytotoxicity control for Vif-APOBEC3G degradation inhibitor project, dose response (AID 1117359); format: functional; details: THP-1
Protein Tat = molecular target: T5, Protein Tat (Human immunodeficiency virus type 1 group M subtype B (isolate HXB2)(HIV-1), UniProt P04608); format: functional;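 further: tat binding to TAR RNA read out by fluorescence polarization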
T5 sequence (P04608 whole entry): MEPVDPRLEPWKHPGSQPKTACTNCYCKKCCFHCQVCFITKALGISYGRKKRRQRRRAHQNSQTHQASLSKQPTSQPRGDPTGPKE

[14] = molecular target: T6, Mannose-6-phosphate isomerase (Homo sapiens, UniProt P34949); experiment: MPI inhibition at elevated mannose 6-phosphate – biochemical, fluorescence intensity, high mannose 6-phosphate, primary screen (AID 1220)
T6 sequence (P34949 whole entry): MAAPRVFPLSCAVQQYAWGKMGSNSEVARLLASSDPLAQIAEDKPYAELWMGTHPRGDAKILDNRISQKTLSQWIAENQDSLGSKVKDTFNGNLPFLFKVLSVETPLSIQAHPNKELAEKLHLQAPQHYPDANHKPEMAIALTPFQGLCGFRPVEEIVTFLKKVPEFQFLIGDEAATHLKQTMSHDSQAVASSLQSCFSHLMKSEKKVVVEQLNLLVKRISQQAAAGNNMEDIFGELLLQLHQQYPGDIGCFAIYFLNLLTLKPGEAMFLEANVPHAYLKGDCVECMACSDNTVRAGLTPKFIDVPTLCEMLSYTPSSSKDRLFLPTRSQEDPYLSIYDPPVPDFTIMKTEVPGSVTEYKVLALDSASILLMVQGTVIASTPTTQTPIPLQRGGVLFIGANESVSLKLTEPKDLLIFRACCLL

[15] = molecular target: T6, Mannose-6-phosphate isomerase; experiment: MPI enzyme activity inhibition – biochemical, fluorescence intensity, coupled assay, primary screen (AID 1209)

Sequence of NAD-dependent protein deacylase sirtuin-5, mitochondrial (Q9NXA8 whole entry): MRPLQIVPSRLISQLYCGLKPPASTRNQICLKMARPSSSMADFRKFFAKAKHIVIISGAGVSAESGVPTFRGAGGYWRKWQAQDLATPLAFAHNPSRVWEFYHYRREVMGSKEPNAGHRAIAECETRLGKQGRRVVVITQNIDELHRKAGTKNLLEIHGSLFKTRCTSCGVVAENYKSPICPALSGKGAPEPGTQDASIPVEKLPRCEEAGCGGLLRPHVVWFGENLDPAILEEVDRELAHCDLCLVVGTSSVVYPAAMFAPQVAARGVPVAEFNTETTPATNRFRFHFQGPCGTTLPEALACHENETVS
Sequence of Ephrin type-A receptor 4 (Q03137 whole entry): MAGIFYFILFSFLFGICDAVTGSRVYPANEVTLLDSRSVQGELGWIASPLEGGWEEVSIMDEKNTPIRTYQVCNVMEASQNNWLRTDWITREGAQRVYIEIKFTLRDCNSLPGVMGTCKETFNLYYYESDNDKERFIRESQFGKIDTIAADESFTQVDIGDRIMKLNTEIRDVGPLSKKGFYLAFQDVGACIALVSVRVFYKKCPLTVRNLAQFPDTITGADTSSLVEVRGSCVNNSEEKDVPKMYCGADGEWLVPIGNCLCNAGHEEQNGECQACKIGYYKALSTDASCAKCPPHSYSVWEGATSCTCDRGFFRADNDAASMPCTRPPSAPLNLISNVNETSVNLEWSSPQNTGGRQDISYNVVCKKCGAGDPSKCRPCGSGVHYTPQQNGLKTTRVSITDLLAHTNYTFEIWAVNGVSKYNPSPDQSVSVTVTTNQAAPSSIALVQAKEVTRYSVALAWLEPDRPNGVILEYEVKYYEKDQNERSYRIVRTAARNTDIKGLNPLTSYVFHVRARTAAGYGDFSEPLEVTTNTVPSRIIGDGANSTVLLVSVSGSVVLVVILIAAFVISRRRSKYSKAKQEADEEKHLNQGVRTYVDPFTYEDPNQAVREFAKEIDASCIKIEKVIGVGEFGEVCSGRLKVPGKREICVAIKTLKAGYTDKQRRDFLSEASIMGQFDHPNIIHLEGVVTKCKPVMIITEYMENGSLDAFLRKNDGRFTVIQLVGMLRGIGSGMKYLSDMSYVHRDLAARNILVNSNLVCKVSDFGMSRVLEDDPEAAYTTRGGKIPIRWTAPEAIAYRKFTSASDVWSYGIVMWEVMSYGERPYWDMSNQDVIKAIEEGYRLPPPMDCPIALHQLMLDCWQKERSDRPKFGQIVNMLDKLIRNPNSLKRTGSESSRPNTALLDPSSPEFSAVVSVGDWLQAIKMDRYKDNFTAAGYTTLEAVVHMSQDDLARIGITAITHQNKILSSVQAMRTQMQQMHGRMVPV
Sequence of Sphingosine 1-phosphate receptor 2 (O95136 whole entry, the tested form may be a part): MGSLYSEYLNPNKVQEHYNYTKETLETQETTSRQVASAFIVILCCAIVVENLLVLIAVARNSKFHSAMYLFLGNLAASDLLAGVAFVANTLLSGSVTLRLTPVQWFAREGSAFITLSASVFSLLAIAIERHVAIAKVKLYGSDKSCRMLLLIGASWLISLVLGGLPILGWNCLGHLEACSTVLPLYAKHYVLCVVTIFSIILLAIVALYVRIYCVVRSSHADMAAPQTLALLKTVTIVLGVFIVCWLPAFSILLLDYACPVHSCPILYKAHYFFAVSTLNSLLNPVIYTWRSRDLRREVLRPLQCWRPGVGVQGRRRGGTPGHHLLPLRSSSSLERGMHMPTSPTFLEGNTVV

C[C@@H]1NC(=O)[C@H](CCC(N)=O)NC(=O)c2cc([N+](=O)[O-])cc(I)c2NCCC[C@@H](C(N)=O)NC1=O
IC50 [1]: > 100 µM (active)

O=C1CC(N(CCc2ccccc2)C(=S)Nc2ccccc2)C(=O)N1c1ccc(Br)cc1 (stereo not given)
IC50 [2]: 0.743 µM (active) | EC50 (Streptokinase A): 2.67 µM (active) | IC50 [3]: 15.4 µM (inactive) | IC50 [4]: 25.3 µM (inactive) | EC50 [5]: 2.87 µM (active) | IC50 [6]: 0.46 µM (active) | EC50 (Streptococcus): 18.3 µM (active)

COc1ccc(N(C(=O)c2ccco2)S(=O)(=O)c2cc(Cl)c(Cl)cc2Cl)cc1
CC50 [7]: > 40 µM (active) | IC50 [8]: 11 µM (not active) | IC50 (Ephrin type-A receptor 4): > 100 µM (not active)

Cc1ccc(S(=O)(=O)Nc2ccc3c(c2)C(=O)N([C@@H](C)CO)C[C@@H](C)[C@H](CN(C)S(=O)(=O)c2ccc(F)cc2)OCCCC[C@@H](C)O3)cc1
AC50 [9]: > 30 µM (inactive)

COc1ccccc1CNC(=O)c1c(N)n(CCCN2CCOCC2)c2nc3ccccc3nc12
EC50 [10]: 3.9 µM (active)

Oc1ccccc1C1NN=C(c2ccccc2)S1 (stereo not given)
EC50 [11]: > 67.5 µM (inactive) | IC50 [12]: > 67.5 µM (inactive)

COc1cc(CNc2ccc3[nH]c(O)nc3c2)cc(Cl)c1OCC(=O)NC(C)(C)C
CC50 [13]: > 40 µM (active) | IC50 (Protein Tat): 50.5 µM (inconclusive) | IC50 [1]: > 51.4 µM (active) | IC50 [14]: > 50 µM (not active) | IC50 [15]: > 50 µM (not active)

— ChEMBL document CHEMBL1201862, “PubChem BioAssay data set” (2004)
